Laboratory results taken from the supplement of paper PMC4862054.

Key:
Experiment in all cases: normalised response (% of control), CellTiter-Glo; higher = more viable cells (100 = DMSO, 0 = benzethonium chloride kill control)
Settings in all cases: incubation time: 72 h
HCC1143 = tested on: HCC1143
Outline: (§1)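 Each value is the plate-normalised signal at one concentration of the series. Breast cancer cell lines (20 µl suspension) were incubated 72 h in 384-well plates with compound at 5 concentrations in 10-fold steps over a compound-specific 10,000-fold range. CellTox Green and then CellTiter-Glo were read, and each plate was scaled to 0.1 % DMSO (100) and a positive kill control (0).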

MDA-MB-468 = tested on: MDA-MB-468
Outline: as §1

MCF-10A = tested on: MCF-10A
Outline: as §1

MFM-223 = tested on: MFM-223
Outline: as §1

CAL-51 = tested on: CAL-51
Outline: as §1

MDA-MB-436 = tested on: MDA-MB-436
Outline: as §1

MDA-MB-453 = tested on: MDA-MB-453
Outline: as §1

Compound `CC[C@@]1(O)C(=O)OCc2c1cc1n(c2=O)Cc2cc3c(CN(C)C)c(O)ccc3nc2-1` [Topotecan] (100 nM) has a normalised response (HCC1143) of 92.9%, a normalised response (MDA-MB-468) of 62.5% and a normalised response (MCF-10A) of 90.2%. The normalised response (MFM-223) was 97.4%, the normalised response (CAL-51) was 98.2% and the normalised response (MDA-MB-436) was 75.2%. For the same compound, the normalised response (MDA-MB-453) was 133%.
